Assay results taken from patent publication US20260355357A1, “DIAGNOSTIC AGENTS AND USES THEREOF” (HADASIT MEDICAL RESEARCH SERVICES AND DEVELOPMENT LTD., priority 2023, published 2026).
Several values for one entry are separate records, joined by “and”; a condition that tells them apart may be missing. Equal entries are not always repeated. Marks after values point to notes of the source that are not given here. Values belong to the molecule of their own block, whether it stands above or below them.

Assays:
brain slices = test: [6,6-D2]D-glucose uptake and metabolism in perfused brain slices, deuterium NMR; assay type: in vitro ADME, rat (male Sprague-Dawley); conditions: for D-Glc before 1st ischemia: group A; for Minimum D-Glc during 1st ischemia: group B, 10 min perfusion arrest; for Maximal difference of D-Glc before and during 1st ischemia: group B′; for D-Glc in between ischemic conditions: group C; for Minimum D-Glc during 2nd ischemia: group D; for Maximal difference of D-Glc before and during 2nd ischemia: group D′; for D-Glc after 2nd ischemic condition: group E; for D-Lac before 1st ischemia: group F; for Maximal D-Lac during 1st ischemia: group G; for D-Lac in between ischemic conditions: group H; for Maximal D-Lac during 2nd ischemia: group I; for D-Lac after 2nd ischemic condition: group J
Source text: Male Sprague-Dawley rats (n=4, 70-100 g) were obtained from the Hebrew University Authority of Biological and Biomedical Models. The joint ethics committee (IACUC) of the Hebrew University and Hadassah Medical Center approved the study protocol for animal welfare. The Hebrew University is an AAALAC International accredited institute. Care was taken to minimize the animals' pain and discomfort. Animals were housed in the animal facilities 3-5 days after delivery for acclimatization and fed ad libitum. On the experimental day, animals were transferred to the laboratory and anesthetized within one hour of arrival.
To improve the health of acute brain slices obtained from mature adult rats, we modified a slice preparation technique optimized for in vitro electrophysiology in mature adult rat brain slices. In brief, slice health is improved by a so-called “protective recovery” method. NMDG is an extracellular replacer of sodium ions that prevents sodium ions and water influx into cells, the primary insult causing cell death following brain slicing. […] Furthermore, incubation in HEPES-buffered artificial cerebrospinal fluid (aCSF) improved slice health. The following solutions were prepared in the current study, and their use is described in the sections below.
NMDG-aCSF was used for transcardial perfusion, tissue slicing, and slice recovery. This medium contained 93 mM NMDG, 2.5 mM KCl, 1.2 mM NaH2PO4, 26 mM NaHCO3, 20 mM HEPES, 25 mM D-glucose, 10 mM MgSO4, 0.5 mM CaCl2, 5 mM ascorbic acid, 2 mM thiourea, and 3 mM pyruvic acid in double distilled water.
HEPES-holding aCSF was used to incubate slices following the surgical procedure. This medium contained 84 mM NaCl, 2.5 mM KCl, 1.2 mM NaH2PO4, 30 mM NaHCO3, 20 mM HEPES, 25 mM Glc (D-glucose, non-labeled), 2 mM MgSO4, 2 mM CaCl2, 5 mM ascorbic acid, 2 mM thiourea, and 3 mM pyruvic acid in double distilled water.
Perfusion aCSF was used for perfusion in the NMR spectrometer. This medium contained 115 mM NaCl, 2.5 mM KCl, 1.2 mM NaH2PO4, 24 mM NaHCO3, 5 mM HEPES, 10 mM Glc (to be replaced with 10 mM D-Glc), 2 mM MgSO4, and 2 mM CaCl2 in double distilled water.
All three solutions (1-3) were bubbled with 95%/5% O2/CO2 for at least one hour before use and titrated to a pH of 7.35-7.45 using HCl or NaOH. All concentrations were optimized for a calculated osmolarity of 310±15 mOsm.
Brain slices were extracted and maintained using the above solutions as previously described. Briefly, the rats were anesthetized using a gas anesthesia system (Somnosuite, Kent Scientific, Torrington, CT, USA). Induction was performed in a chamber with 3.5% isoflurane in room air with a flow rate of 440 mL/min. Following 4-7 min of induction, anesthesia was maintained with 3.1-3.2% isoflurane at the same flow rate. Upon obtaining a negative pedal pain reflex, surgery was initiated. First, the diaphragm was exposed and cut, and the rat was transcardially perfused with 30 mL of ice-cold NMDG-aCSF (Solution 1). The animals were then sacrificed by decapitation, and the brain was rapidly removed and placed in ice-cold NMDG-aCSF (Solution 1). The cerebrum was then cut into four parts (first, a sagittal cut along the hemispheric cleft and then a sagittal cut in the middle of each hemisphere). From each part, 350 μm slices were prepared using a McIlwain tissue chopper (The Mickle Laboratory Engineering Company Ltd., Surrey, UK). The process of brain extraction, from decapitation till the brain was in ice-cold NMDG-aCSF, took under 2 min, and the slicing procedure was done in less than 10 min. After cutting, the slices were transferred to warm, 32-34 °C, NMDG-aCSF (Solution 1) for 12 min for protective recovery. Then, the slices were transferred to HEPES-holding aCSF (Solution 2) at ~32 °C for 15-40 min incubation before transfer to the NMR spectrometer, where the slices were perfused with the aCSF of Solution 3. […]

[1] = Deuteron T1 determined by Inversion Recovery technique (5.8T, saline); assay type: physicochemical; conditions: for T1 relaxation time of deuterons at D site / HDO T1: 5.8T, saline
Method: Example 1: Determinations of Deuterons T1 in Sugar Molecules
Table 1 describes the difference in T1 of deuterons in water (HDO, natural abundance) and in sites labelled with deuterons in various molecules that were determined using an Inversion Recovery technique. […] PGP-47 TI

[2] = Adverse effects after bolus intravenous injection of DDG, rats; assay type: in vivo, rat; conditions: bolus i.v., 37 mg/kg to 248 mg/kg (mice and rats), awake up to 78 min
Method: (§1) Mice and rats, males and females at equal numbers, were intravenously injected with a bolus of varying doses of deuterated 2-deoxy-D-glucose (2-DG, DDG, with varying numbers and positions of deuteration). DDGs were provided by CortecNet, France. The injection was performed under sedation in all rats (18) and in 12 of 18 mice, after which the animals woke up within 1 minute. […] Further to euthanasia, the brain, liver, kidneys, heart, and muscle were excised and immediately placed in liquid nitrogen. The frozen tissue samples were kept at −80 °C until further processing.
(§2) The animals were observed awake for up to 78 min after the injection. The injection bolus was administered in less than 1 s and ranged from 0.1 mL for mice (ca. 25-40 g) to 0.6 mL for rats (ca. 120-160 g).

[3] = Adverse effects after bolus intravenous injection of DDG, mice; assay type: in vivo, mouse; conditions: bolus i.v., 37 mg/kg to 248 mg/kg (mice and rats), awake up to 78 min
Method: as §1, §2

[4] = position 1 (aliphatic), 16-17 °C
[5] = position 2 (aliphatic), 16-17 °C

SMILES: [2H]O [HDO]
HDO T1 ([1]; HDO in the solution of [13C6, D7]glucose, 20 °C): 279 ms
HDO T1 ([1]; HDO in the solution of the compound on that line, 16-17 °C): 420 ms and 437 ms and 422 ms and 410 ms
HDO's T1 ([1]; summary of Table 1): ca. 400 ms

SMILES: C[N+](C)(C)CCO [[2-^13C,1,1,2,2-D4]choline chloride]
T1 relaxation time of deuterons at D site [1, 4]: 422 ms
T1 relaxation time of deuterons at D site [1, 5]: 404 ms

SMILES: N[C@@H](Cc1ccc(O)cc1)C(=O)O [[D7]tyrosine]
T1 relaxation time of deuterons at D site ([1]; aliphatic, 16-17 °C): 48 ms
T1 relaxation time of deuterons at D site ([1]; aromatic, 16-17 °C): 43 ms

SMILES: [2H]C1(O)O[C@]([2H])(C([2H])([2H])O)[C@@]([2H])(O)[C@]([2H])(O)C1([2H])[2H] (stereo partly drawn) [[D8]DDG, [1,2,2,3,4,5,6,6-D8]2-deoxy-D-glucose]
adverse effects [2]: no adverse effects
adverse effects [3]: no adverse effects

SMILES: C[N+](C)(C)CCO [[D13]choline bromide]
T1 relaxation time of deuterons at D site [1, 4]: 389 ms
T1 relaxation time of deuterons at D site [1, 5]: 396 ms
T1 relaxation time of deuterons at D site ([1]; position 3 (aliphatic), 16-17 °C): 382 ms

SMILES: N[C@@H](Cc1ccc(O)cc1)C(=O)O [[^13C9, D7, ^15N]tyrosine]
T1 relaxation time of deuterons at D site ([1]; aliphatic, 16-17 °C): 45 ms
T1 relaxation time of deuterons at D site ([1]; aromatic, 16-17 °C): 45 ms

The next lines start with results.

time for return to baseline level upon reperfusion (brain slices; after 1st ischemic condition): ≤ 8 min
time for return to baseline level upon reperfusion (brain slices; after 2nd ischemic condition): ≤ 8 min
time for D-Glc signal to reach plateau (brain slices; after administration of D-Glc to perfusion medium): ≤ 6 min
maximal decrease in the D-Glc concentration (brain slices; both ischemic conditions, n=6): 4.3 ± 0.9 mM
conversion of available D-Glc (brain slices; during the ischemic conditions): fully converted to D-Lac
D-Glc before 1st ischemia (brain slices; average ± SD, n=3): 8.6 ± 0.7 mM
D-Glc before 1st ischemia (brain slices; individual animals): 9.3 mM and 8.8 mM and 7.6 mM
Minimum D-Glc during 1st ischemia (brain slices; average ± SD, n=3): 4.6 ± 1.5 mM
Minimum D-Glc during 1st ischemia (brain slices; individual animals): 4.7 mM and 6.4 mM and 2.8 mM
Maximal difference of D-Glc before and during 1st ischemia (brain slices; average ± SD, n=3): 3.9 ± 1.3 mM
Maximal difference of D-Glc before and during 1st ischemia (brain slices; individual animals): 4.6 mM and 2.4 mM and 4.8 mM
D-Glc in between ischemic conditions (brain slices; average ± SD, n=3): 8.7 ± 0.7 mM
D-Glc in between ischemic conditions (brain slices; individual animals): 9.5 mM and 8.6 mM and 7.9 mM
Minimum D-Glc during 2nd ischemia (brain slices; average ± SD, n=3): 4.1 ± 0.5 mM
Minimum D-Glc during 2nd ischemia (brain slices; individual animals): 4.6 mM and 4.2 mM and 3.4 mM
Maximal difference of D-Glc before and during 2nd ischemia (brain slices; average ± SD, n=3): 4.6 ± 0.3 mM
Maximal difference of D-Glc before and during 2nd ischemia (brain slices; individual animals): 4.9 mM and 4.4 mM and 4.5 mM
D-Glc after 2nd ischemic condition (brain slices; average ± SD, n=3): 9.3 ± 1.1 mM
D-Glc after 2nd ischemic condition (brain slices; individual animals): 10.8 mM and 8.8 mM and 8.2 mM
D-Glc in between 2nd and 3rd ischemic conditions (brain slices; group K, animal 3): 8.3 mM
Minimum D-Glc during 3rd ischemia (brain slices; group L, animal 3, 64 min ischemia): 1.2 mM
Maximal difference of D-Glc before and during 3rd ischemia (brain slices; group L′, animal 3): 7.1 mM
D-Glc after 3rd ischemic condition (brain slices; group M, animal 3): 9.1 mM
T1 relaxation time of deuterons at D site ([1]; aliphatic, 16-17 °C): 53 ^c ms
SMILES: OC[C@H]1OC(O)[C@H](O)[C@@H](O)[C@@H]1O (stereo partly drawn) [D-Glc, [6,6-D2]D-glucose]

time for return to baseline level upon reperfusion (brain slices; after 1st ischemic condition): ≤ 8 min
time of first observation of D-Lac signal (brain slices; after D-Glc administration): ≤ 8 min
time for D-Lac to reach plateau (brain slices; after D-Glc administration, n=3): 12 to 14 min
increase in D-Lac concentration (brain slices; both ischemic conditions, n=6): 5.5 ± 1.1 mM
D-Lac level without perfusion arrest (brain slices; control experiment, no ischemic conditions): constant throughout
D-Lac before 1st ischemia (brain slices; average ± SD, n=3): 0.9 ± 0.4 mM
D-Lac before 1st ischemia (brain slices; individual animals): 0.4 mM and 1.02 mM and 1.4 mM
Maximal D-Lac during 1st ischemia (brain slices; average ± SD, n=3): 5.1 ± 1.3 mM
Maximal D-Lac during 1st ischemia (brain slices; individual animals): 4.8 mM and 3.7 mM and 6.8 mM
D-Lac in between ischemic conditions (brain slices; average ± SD, n=3): 1.1 ± 0.3 mM
D-Lac in between ischemic conditions (brain slices; individual animals): 0.67 mM and 1.29 mM and 1.41 mM
Maximal D-Lac during 2nd ischemia (brain slices; average ± SD, n=3): 5.91 ± 0.12 mM
Maximal D-Lac during 2nd ischemia (brain slices; individual animals): 5.85 mM and 6.07 mM and 5.80 mM
D-Lac after 2nd ischemic condition (brain slices; average ± SD, n=3): 1.6 ± 0.4 mM
D-Lac after 2nd ischemic condition (brain slices; individual animals): 1.08 mM and 1.50 mM and 2.16 mM
Maximal D-Lac during 3rd ischemia (brain slices; group N, animal 3, 64 min ischemia): 10.2 mM
D-Lac after 3rd ischemia (brain slices; group O, animal 3): 2.7 mM
D-Lac signal in medium without brain slices relative to D-Lac in NMR tube with slices (brain slices; perfusion medium, five h, no perfusion arrest): 2.2%
SMILES: [2H]C([2H])C(O)C(=O)O [D-Lac, [3,3-D2]lactate]
D-Lac accumulation within the cells due to ischemic conditions (brain slices; after 2nd reperfusion vs before and between ischemic conditions): did not accumulate within the cells due to the ischemic conditions

T1 relaxation time of deuterons at D site ([1]; aliphatic + ring, 20 °C): 56 ms
SMILES: OC[C@H]1OC(O)[C@H](O)[C@@H](O)[C@@H]1O (stereo partly shown) [[^13C6, D7]glucose]
